Source: patent US8772243B2, “Methods for predicting the response to anti-cancer treatment with an agonist of TLR7 or an agonist of TLR8” (Inserm (Institut National de la Sante et de la Recherche …, priority 2008, dated 2014)

Experiments:
[1] = system: Bcl-2 expression in A549 cells; test: Bcl-2 expression, Taq Man Low Density Array, A549; format: cell-based, human; conditions: 6 h, RT-PCR
Experimental: FIG. 4 TLR7 and 8 induce survival of lung tumor cells. (A) A549 cells were unstimulated, stimulated with loxoribine (10 μg/ml), Poly U (10 μg/ml), or Gardiquimod(10μg/ml) and incubated with Alamar blue for 10 days. Reduction of Alamar blue was then determined by spectrophotometry at 570 and 600 nm. The percentage of reduced Alamar blue was calculated as described by the manufacturer. A549 cells were unstimulated or stimulated with loxoribine, Poly U, Gardiquimod, etoposide, or cycloheximide for 24 h. (B) The percentage of dead cells was determined by Trypan blue exclusion. (C) The DNA content was measured by IP staining after RNAse A treatment. The percentages indicate the proportion of subdiploid (G0/G1) and […]. Data represent mean values±SD from 3 independent experiments (*p<0.05; ** p<0.01, Student test). (D) A549 cells were cultured for 6 h in the presence of loxoribine, Poly U, or Gardiquimod, and the expression of Bcl-2 was assayed using Taq Man Low Density Array technology. The ΔCT values for Bcl-2 expression were calculated by subtraction of the CT value obtained for the 18S housekeeping gene. The ΔΔCT values were obtained by subtraction of ΔCT values for unstimulated cells from those obtained for stimulated cells. […]
Total RNA was extracted from A549 or SK-MES cells stimulated with loxoribine, Poly U, or Gardiquimod for 6 h or from purified human lung cancer cells using the RNeasy isolation-kit RNA (Qiagen, Courtaboeuf, France). The integrity and the quantity of the RNA were evaluated with a bioanalyzer-2100 (Agilent Technologies). All samples were assessed for gene expression analysis using the Taq Man Low-Density Array angiogenesis and immune panel (Applied Biosystem). […] Quantitative real-time TaqMan-PCR was performed using Low-Density-Arrays and the 7900 robotic real-time PCR-system (Applied-Biosystems). […] Data were analyzed using the SDS Software v2.2 (Applied-Biosystems). The ΔCT values were calculated for each gene by subtraction of the CT value of the 18S housekeeping gene from the CT of the gene of interest. […]

A549 cells [2] = test: Cell cycle analysis (propidium iodide staining); format: cell-based, human; conditions: PI staining
Experimental: (§1) FIG. 4 TLR7 and 8 induce survival of lung tumor cells. (A) A549 cells were unstimulated, stimulated with loxoribine (10 μg/ml), Poly U (10 μg/ml), or Gardiquimod(10μg/ml) and incubated with Alamar blue for 10 days. Reduction of Alamar blue was then determined by spectrophotometry at 570 and 600 nm. The percentage of reduced Alamar blue was calculated as described by the manufacturer. A549 cells were unstimulated or stimulated with loxoribine, Poly U, Gardiquimod, etoposide, or cycloheximide for 24 h. (B) The percentage of dead cells was determined by Trypan blue exclusion. (C) The DNA content was measured by IP staining after RNAse A treatment. The percentages indicate the proportion of subdiploid (G0/G1) and […]. Data represent mean values±SD from 3 independent experiments (*p<0.05; ** p<0.01, Student test). (D) A549 cells were cultured for 6 h in the presence of loxoribine, Poly U, or Gardiquimod, and the expression of Bcl-2 was assayed using Taq Man Low Density Array technology. The ΔCT values for Bcl-2 expression were calculated by subtraction of the CT value obtained for the 18S housekeeping gene. The ΔΔCT values were obtained by subtraction of ΔCT values for unstimulated cells from those obtained for stimulated cells. The fold increase (arbitrary unit) was obtained by 2^−ΔΔCT.
A549 cells were cultured in the presence of loxoribine, Poly U, Gardiquimod, etoposide, or cycloheximide. After 48 h, the cells were harvested, washed in cold PBS, and fixed with 2 ml of 70% cold ethanol in PBS for 2 h at 4° C. After centrifugation, the supernatant was removed and the pellet was rinsed with 0.5% PBS Tween. It was then incubated with […] of RNAse A and 50 μg of propidium iodide in PBS. Propidium iodide staining was determined with a FACScalibur cytometer.

[3] = system: Bcl-2 expression in SCC SK-MES cells; test: Bcl-2 expression, SK-MES; format: cell-based, human; conditions: data not shown
Experimental: (§2) Total RNA was extracted from A549 or SK-MES cells stimulated with loxoribine, Poly U, or Gardiquimod for 6 h or from purified human lung cancer cells using the RNeasy isolation-kit RNA (Qiagen, Courtaboeuf, France). The integrity and the quantity of the RNA were evaluated with a bioanalyzer-2100 (Agilent Technologies). All samples were assessed for gene expression analysis using the Taq Man Low-Density Array angiogenesis and immune panel (Applied Biosystem). The RT-PCR experiments were carried-out according to the manufacturer's instructions (Applied-Biosystems). Quantitative real-time TaqMan-PCR was performed using Low-Density-Arrays and the 7900 robotic real-time PCR-system (Applied-Biosystems). The 18S primers and probes were used as internal controls. Data were analyzed using the SDS Software v2.2 (Applied-Biosystems). The ΔCT values were calculated for each gene by subtraction of the CT value of the 18S housekeeping gene from the CT of the gene of interest. The ΔΔCT values were obtained by subtraction of the ΔCT values for unstimulated cells from the […]. The fold increase (arbitrary unit) was obtained by 2^−ΔΔCT.

A549 cells [4] = test: Tumor cell proliferation assay (Alamar blue reduction); format: cell-based, human; conditions: 10 μg/ml, ten days
Experimental: as §1
Human lung cancer cell lines were seeded in 96-well plates (800 cells per well) and left unstimulated or were stimulated with loxoribine, Poly U, or Gardiquimod. The proliferation assay was performed with Alamar blue (AbD Serotec, Cergy Pontoise, France) according to the manufacturer's instructions. Briefly, cells were seeded and stimulated with TLR ligands in 100 μl of medium, and 10 μl of Alamar Blue was added. The optical density in each well was determined at 540 nm and 570 nm after 10 days of culture, and the percentage of reduced Alamar blue was determined. The percentage of reduced Alamar blue in unstimulated cells was determined as 100%, and the percentages of the stimulated cells were determined relative to this value.

A549 and SK-MES cells [5] = test: Transcriptomic analysis of 182 genes (Taq Man Low Density Array); format: cell-based, human; conditions: 6 h stimulation; versus unstimulated cells
Experimental: FIG. 6 TLR7 and 8 induce regulation of gene transcription. A549 or SK-MES cells were cultured for 6 h in the presence of loxoribine, Poly U, or Gardiquimod. Total RNA was extracted and analyzed for the expression of 182 genes using Taq Man Low Density Array technology. All genes with a value greater than 35 (CT) were excluded from the analysis. The ΔCT values for the expression of all genes were calculated by subtraction of the CT value of the 18S housekeeping gene. The ΔΔCT values were obtained by subtraction of the ΔCT values for unstimulated cells from those obtained for TLR7- or 8-stimulated cells. The fold increase (arbitrary unit) was obtained by 2^−ΔΔCT. Values were then clustered using the Genesis Software.
as §2

[6] = system: 1549, H1355 and SK-MES cells; test: Chemoresistance by colony formation assay; format: cell-based, human; conditions: concentration added on day 12 of colony formation assay
Experimental: Alternatively, chemoresistance was assessed by the colony formation assay. In this assay, 1549, H1355 and SK-MES cells were seeded in 6-well plates (500 cells per well) and incubated for 15 days at 37° under 5% CO2. The cells were left unstimulated or stimulated 100 μM Loxoribine or with 10 μg/ml single-stranded polyU RNA (InvivoGen) on days 0, 3, 6 and 9. On day 12, different anti-cancer agents were added at the respective LD50 (cisplatin and carboplatin 100 μM, navelbine 50 μM, doxorubicine 2 nM). On day 15, the wells ware washed with PBS, and stained with 6% (vol/vol) glutaraldehyde, 0.5% (wt/vol) crystal violet in water for 30 minutes. The cells were washed and the colonies of more than 50 cells counted. Cell survival was calculated as follows: number of colonies after chemotherapy/number of cells seeded on day 0×plating efficiency, where the plating efficiency is number of colonies/number of cells seeded.

A549 and SK-MES cells [7] = test: Chemoresistance assay (Trypan blue and Alamar blue); format: cell-based, human; conditions: Alamar blue reduction
Experimental: FIG. 5 TLR7 and 8 induce chemoresistance of lung tumor cells. A549 (A-C) or SK-MES cells (D-F) were cultured with or without loxoribine or Poly U for 48 h, and then left untreated or were treated with cycloheximide, cisplatine, carboplatine, doxorubicine, or Navelbine. After 36 h, the percentage of dead cells was determined by Trypan blue exclusion (A, D) and cell viability was analyzed by the reduction of Alamar blue (B, C, E and F). Data represent mean values±SD from 3 independent experiments (*p<0.05; **p<0.01, ***p<0.001, Student test).
A549 and SK-MES cells were seeded in 96-well plates (1000 cells per well) and left unstimulated or were stimulated with loxoribine, Poly U, or Gardiquimod for 48 h. Cisplatine, carboplatine, doxorubicine, Navelbine, or cycloheximide was then added for an additional 36 h. The optical density in each well was determined 24 h after the addition of Alamar blue at 540 nm and 570 nm. Alternatively, viable and dead cells were counted using Trypan blue.

A549 cells [8] = test: A549 xenograft in NOD/SCID mice; format: in vivo; conditions: for factor of reduction of tumor size by chemotherapy: cisplatine 2 mg/kg/injection i.p.
Experimental: Mice were anesthetized by intra-peritoneal injection of a solution containing 3.2 mg of ketamine (Virbac) and 0.16 mg of xylasine (Rompum 2%, Bayer Healthcare) in 80 μl of PBS (Gibco). Five days prior to experimentation, A549 cells were pre-stimulated with 100 μM Loxoribine (Invivogen) or left unstimulated. For each condition 5×10^6 cells were diluted in 250 μl PBS and injected subcutaneously to 5 mice per group and were re-stimulated either with 50 μl PBS or with 100 nmol of Loxoribine diluted in 50 μl PBS. Stimulating injections into the tumor site were carried out on the day the cells were injected and then on days 3, 6 and 9. The mice then received either 120 μA PBS, or a chemotherapy of cisplatine (2 mg/kg/injection diluted in 120 μl PBS) on days 18, 20 and 22, both intra-peritoneal. The volume of the tumor was determined by measuring the length (Lg), the width (Wi) of the tumor and by calculating (Lg*(Wi*Wi)/2.

Compound: CCNCc1nc2c(N)nc3ccccc3c2n1CC(C)(C)O [Gardiquimod]
- Bcl-2 expression compared to untreated cells [1]: increased expression of Bcl-2
- proportion of cells in G0/G1 or G2/M phases versus unstimulated cells (A549 cells [2]): did not observe any significant differences
- increase in Bcl-2 expression [3]: 100 fold
- increase in reduction of Alamar blue versus unstimulated cells (A549 cells [4]): 20%
- genes down-regulated in both SK-MES and A549 cells (A549 and SK-MES cells [5]): Prolactin (PRL), CD80, Fibronectin-1 (FN-1), A Disintegrin And Metalloproteinase with ThromboSpondin motif 1 (ADAMTS1), and Serpin Peptidase Inhibitor Clade C1 (SERPINC1)
- genes up-regulated in A549 cells, but down-regulated in SK-MES cells (A549 and SK-MES cells [5]): Angiopoietin like 3 (ANGPTL3), Serpin Peptidase Inhibitor Clade F1 (SERPINF1), and Angiopoietin 1 (ANGPT1)
- genes up-regulated in SK-MES, but down-regulated in A549 cells (A549 and SK-MES cells [5]): ANGPTL1, Platelet Factor 4 (PF4), and fms related tyrosine kinase 4 (FLT4)
- genes up-regulated in both SK-MES and A549 cells (A549 and SK-MES cells [5]): Bcl-2, CCR4, and Vasohibin-1 (VASH-1)

Compound: CCC1=C[C@@H]2CN(C1)Cc1c([nH]c3ccccc13)[C@@](C(=O)OC)(c1cc3c(cc1OC)N(C)[C@H]1[C@@](O)(C(=O)OC)[C@H](OC(C)=O)[C@]4(CC)C=CCN5CC[C@]31[C@@H]54)C2 [Navelbine]
- LD50 [6]: 50 µM

Compound: [NH2][Pt]1([NH2])[O]C(=O)C2(CCC2)C(=O)[O]1 [carboplatine]
- reduction in cell viability by chemotherapy, comparison of drugs (A549 and SK-MES cells [7]): more potent inducers of cell death
- LD50 [6]: 100 µM

Compound: [NH2][Pt]([NH2])([Cl])[Cl] [cisplatine]
- reduction in cell viability by chemotherapy, comparison of drugs (A549 and SK-MES cells [7]): more potent inducers of cell death
- LD50 [6]: 100 µM
- factor of reduction of tumor size by chemotherapy (A549 cells [8]; Loxoribine-stimulated group): 1.6 factor
- factor of reduction of tumor size by chemotherapy (A549 cells [8]; NS group): 3 factor
- tumor volume seven weeks after injection of tumor cells (A549 cells [8]; NS group, cisplatine 2 mg/kg/injection i.p. days 18, 20, 22): 0.6 cm^3
